We go through 5 compounds from US9988405B2, “O-phenyl chalcone compounds and uses thereof” (Neopanora Bio-technology (Zhuhai) Ltd., priority 2014, dated 2018).

Read-outs that look alike come from different tables or passages of the source.

Test [1] deals with human nasopharyngeal carcinoma cells CNE2. Nature of the test: SRB anti-proliferative assay, CNE2. In kind it is cell-based. Conditions: read-out: Anti-proliferative IC50, CNE2. The method, then:
(§1) The present example evaluated the anti-tumor activity of the molecules provided by the present invention. The present example mainly used a method with SRB (sulforhodamine B) dying, in which proteins in the cell were stained with SRB dye to determine protein content in the cell so as to characterize cell growth density. Firstly, the test compound was formulated into a stock solution (10 mM), which was stored at 4° C. in a refrigerator. Prior to beginning the assay, the stock solution was diluted with DMSO into a series of different concentrations. The required concentrations were obtained by diluting with complete growth medium. Well growing cells were seeded in a 96-well plate (5000 cells/well, 100 uL) and cultured in an incubator at 37° C., 5% CO2, and 90% RH. 24 h later, the prepared compound solution (100 μL) was slowly added to cell solution in the 96-well plate, and the well with DMSO (final concentration 0.5%) instead of the drug was used as a drug free control. The plate was incubated for 48 h. In addition, a day 0 plate that was drug free was directly detected after cell seeded in the plate for 24 h. The 96-well plate was taken out and added with trichloroacetic acid (50 μL, final concentration 10%). The plate was incubated at 4° C. for 1 h to fix the cells.
(§2) The plate was washed with ultrapure water and air-dried. The plate was then stained with SRB dye (0.4% in 1% acetic acid, 100 μL) for 30 min at room temperature. The plate was then washed with 1% acetic acid and then air-dried. A Tris base solution (100 μL, 10 mM, pH10.4) was added, after which the plate was gently shaken for 1 h on an orbital shaker to ensure that the dyes were completed dissolved. The optical density (OD) was recorded on a TECAN Infinite M200 Pro multimode reader at 515 nm. The cell growth (% of control)=(OD value of wells added with drug−mean OD value of Day 0 plate)/(OD value of DMSO drug-free control well−mean OD value of Day 0 plate)*100.

The test system of test [2] is cis-platinum resistant human lung cancer cell A549/CDDP. The test is described as follows: SRB anti-proliferative assay, drug-resistant A549/CDDP. In kind it is cell-based. Conditions: read-out: Anti-proliferative IC50, A549/CDDP. The method, then:
as §1, §2
(§3) We also evaluated the anti-proliferation activities of selected compounds against drug-resistant cancer cell lines.

Test [3] deals with human colon cancer cells SW480. Nature of the test: SRB anti-proliferative assay, SW480. In kind it is cell-based. Conditions: read-out: Anti-proliferative IC50, SW480. The method, then: as §1, §2
The test system of test [4] is tubulin. The test is described as follows: Microtubule polymerization inhibition assay (tubulin polymerization assay kit). In kind it is biochemical. To be noted: 2 mg/ml tubulin, 37° C., fluorescence, 1 hour; read-out: IC50 on inhibition of microtubules polymerization. The method, then: Tubulin polymerization assay kit was used in the example, and the accompanying experimental protocol was followed. The specific method was described below.
Prior to the assay, the compounds were diluted with DMSO into a series of different concentrations and then diluted with sterile ultra-pure water into 10× solution of compounds. A 96-well plate was pre-warmed to 37° C. for 30 min in a multi-functional microplate reader. Reaction solution (2 mg/ml tubulin, 80 mM PIPES pH6.9, 2.0 mM MgCl2, 0.5 mM EGTA, 1.0 mM GTP, 15% glycerin) is prepared by materials needed in microtubule polymerization (tubulin buffer 85 uL, Glycerin buffer 150 μL, general buffer 205 μL, GTP ([…]) 4.4 μL). 5 μL solution of compound were added into the 96-well plate and incubated in a microplate reader for 1 min. DMSO was employed as a control. The plate was taken out and then reaction solution was immediately added ([…]). The plate was then immediately placed back into the reader and vibrated for 5 seconds before recording. The microplate reader was set at 37° C., and monitored in a kinetic model with emission wavelength at 450 nm and excitation wavelength at 360 nm. The plate was mixed and measured every minute and determined for 1 hour. A curve of fluorescence intensity v.s. time was obtained and the inhibition rate was calculated by the following formula. GraphPad Prism software was used to determine the IC50. Inhibition rate=[1−(average value of plateau of test curve−value of time 0)/(average value of plateau of DMSO curve−value of time 0)]*100.

The subject of test [5] is human breast cancer cells MCF7. The test is described as follows: SRB anti-proliferative assay, MCF-7. In kind it is cell-based. Conditions: read-out: Anti-proliferative IC50, MCF-7. The method, then: as §1, §2
Test [6] relates to Paclitaxel-resistant human ovarian carcinoma cell A2780/TAX. The test is described as follows: SRB anti-proliferative assay, drug-resistant A2780/TAX. In kind it is cell-based. Conditions: read-out: Anti-proliferative IC50, A2780/TAX. The method, then:
as §1, §2, §3

In test [7] the test system is human liver cancer cell HepG2. The test is described as follows: SRB anti-proliferative assay, HepG2. In kind it is cell-based. To be noted: read-out: Anti-proliferative IC50, HepG2. The method, then: as §1, §2
Test [8] deals with human colon cancer cells HCT8. The test is described as follows: SRB anti-proliferative assay, HCT-8. In kind it is cell-based. Conditions: read-out: Anti-proliferative IC50, HCT-8. The method, then: as §1, §2
Test [9] concerns incristine resistant human ileocecum carcinoma cell HCT-8/VCT. Nature of the test: SRB anti-proliferative assay, drug-resistant HCT-8/VCT. In kind it is cell-based. To be noted: HCT8/VCT, read-out: Anti-proliferative IC50, HCT-8/VCT. The method, then:
as §1, §2, §3

Test [10] concerns human lung cancer cells A549. The test is described as follows: SRB anti-proliferative assay, A549. In kind it is cell-based. To be noted: read-out: Anti-proliferative IC50, A549. The method, then: as §1, §2
Test [11] relates to human ovary cancer cells A2780. Nature of the test: SRB anti-proliferative assay, A2780. Conditions: read-out: Anti-proliferative IC50, A2780. In kind it is cell-based. The method, then: as §1, §2
The test system of test [12] is doxorubicin resistant breast cancer cell MCF-7/DOX. Nature of the test: SRB anti-proliferative assay, drug-resistant MCF-7/DOX. In kind it is cell-based. Conditions: Homo sapiens, MCF7-DOX, read-out: Anti-proliferative IC50, MCF-7/DOX. The method, then:
as §1, §2, §3

The test system of test [13] is A549 cells. The test is described as follows: Microtubule re-assembly and mitosis on cellular level (confocal immunofluorescence). In kind it is cell-based, human. Conditions: 31 nM. The method, then: The method was primarily described here below.
A549 cells were seeded in a confocal culture dish at 8×10^4 cells/dish, grown for 24 h and divided into two groups. DMSO (0.5%) was added to one group followed by culture for 24 h. Compound 3 (31 nM) was added to the other group followed by culture for 24 h. Then cells of two dishes were fixed directly (37° C.). The remaining cells were placed in ice for 1 h, then at 37° C. for 0, 5, 10, and 15 min Cells were then fixed with paraformaldehyde (4%) for 15 min. Then cells were subject to permeabilization buffer for 15 min Primary β-tubulin mouse antibody was added and incubated at room temperature for 1 h.
3 on microtubules, microtubule re-assembly and mitosis: a, c-f, was the solvent control group (0.5% DMSO added), b, g-j was test group (31 nM compound no. 3 added), Scale bars: […].

The mark [14] stands for this setting: cis-platinum resistant A549/CDDP, SRB.
[15] abbreviates: paclitaxel-resistant A2780/TAX, SRB.
Where [16] appears, read: vincristine-resistant HCT-8/VCT, SRB.
Setting [17] is: doxorubicin resistant MCF-7/DOX, SRB.

For `COc1ccc(/C=C/C(=O)c2ccccc2-c2ccc(F)cc2)cc1B(O)O` [compound 1, (E)-(5-(3-(4′-Fluoro[1,1′-biphenyl]-2-yl)-3-oxoprop-1-en-1-yl)-2-methoxyphenyl)boronic acid], the IC50 stood at 83 nM in test [1] (CNE-2, CNE2, SRB, 48 h); 74 nM in [2] (setting [14]); 41 nM in test [3] (SW480, SRB, 48 h); 3410 nM in test [4]; 40 nM in [5] (MCF7, MCF-7, SRB, 48 h); 227 nM in [6] (setting [15]). The IC50 in test [7] (HepG2, SRB, 48 h) worked out at 30 nM; in test [8] (HCT-8, SRB, 48 h) it was 63 nM; in [9] (setting [16]), 84 nM; in test [10] (A549, SRB, 48 h) it was 70 nM; in [11] (A2780, SRB, 48 h) it was 63 nM; in test [12] (setting [17]) it was 24 nM.
For `CN(C)c1ccc(/C=C/C(=O)c2ccccc2-c2ccc(F)cc2)cc1` [compound 2, (E)-3-(4-(Dimethylamino)phenyl)-1-(4′-fluoro[1,1′-biphenyl]-2-yl)prop-2-en-1-one], the IC50 is 36 nM in [1] (CNE-2, CNE2, SRB, 48 h); 105 nM in test [2] (setting [14]); 47 nM in [3] (SW480, SRB, 48 h); 3560 nM in test [4]; 66 nM in test [5] (MCF7, MCF-7, SRB, 48 h); 49 nM in [6] (setting [15]). Moreover, the IC50 in test [7] (HepG2, SRB, 48 h) was determined as 58 nM; in test [8] (HCT-8, SRB, 48 h), 133 nM; in test [9] (setting [16]), 96 nM; in [10] (A549, SRB, 48 h), 64 nM; in test [11] (A2780, SRB, 48 h), 94 nM; in test [12] (setting [17]), 45 nM.
Take `COc1ccc(/C=C/C(=O)c2ccccc2-c2cccc(F)c2)cc1O` [compound 3, (E)-1-(3′-Fluoro[1,1′-biphenyl]-2-yl)-3-(3-hydroxy-4-methoxyphenyl)prop-2-en-1-one]: the IC50 turned out to be 17 nM in [1] (CNE-2, CNE2, SRB, 48 h); 121 nM in test [2] (setting [14]); 12 nM in [3] (SW480, SRB, 48 h); 487 nM in test [4]; 65 nM in test [5] (MCF7, MCF-7, SRB, 48 h); 190 nM in test [6] (setting [15]). For the same compound, the IC50 in test [7] (HepG2, SRB, 48 h) came to 14 nM; in [8] (HCT-8, SRB, 48 h), 16 nM; in [9] (setting [16]), 57 nM; in test [10] (A549, SRB, 48 h) it was 11 nM; in [11] (A2780, SRB, 48 h), 13 nM; in test [12] (setting [17]), 2 nM. The “Abnormal events in mitotic phase” value in test [13] is “multipolarization of spindle and multinucleation”. Moreover, the “Effect on filiform structure of microtubule” value in test [13] (24 h) was “microtubule depolymerized to form discreet tublin”. Besides, the “Automatic re-assembly (polymerization) of tubulin into microtubule after ice incubation” value in test [13] (ice 1 h then 37° C. 0-15 min) is “obviously inhibited”.
For the compound `COc1ccc(/C=C/C(=O)c2ccccc2-c2cc(OC)c(OC)c(OC)c2)cc1O` [compound 4, (E)-3-(3-Hydroxy-4-methoxyphenyl)-1-(3′,4′,5′-trimethoxy[1,1′-biphenyl]-2-yl)prop-2-en-1-one], the IC50 in test [1] (CNE-2, 48 h) was found to be 37 nM; in test [2] (A549/CDDP), 93 nM; in test [3] (SW480, 48 h), 61 nM; in test [4], 2780 nM; in test [5] (MCF7, 48 h), 82 nM; in [6] (A2780/TAX), 364 nM. For the same compound, the IC50 is 46 nM in test [7] (HepG2, 48 h); 56 nM in test [8] (HCT-8, 48 h); 238 nM in [9]; 69 nM in test [10] (A549, 48 h); 69 nM in [11] (A2780, 48 h); 66 nM in test [12].
Consider `COc1ccc(/C=C/C(=O)c2ccccc2-c2ccc(OC)c(OC)c2OC)cc1O` [compound 5, (E)-3-(3-Hydroxy-4-methoxyphenyl)-1-(2′,3′,4′-trimethoxy[1,1′-biphenyl]-2-yl)prop-2-en-1-one], for which the IC50 in test [1] (CNE-2, CNE2, SRB, 48 h) came to 45 nM; in test [2] (setting [14]) it was 122 nM; in test [3] (SW480, SRB, 48 h), 74 nM; in test [4], 6500 nM; in test [5] (MCF7, MCF-7, SRB, 48 h), 96 nM; in test [6] (setting [15]) it was 289 nM. Besides, the IC50 came to 52 nM in test [7] (HepG2, SRB, 48 h); 59 nM in test [8] (HCT-8, SRB, 48 h); 266 nM in test [9] (setting [16]); 55 nM in test [10] (A549, SRB, 48 h); 74 nM in [11] (A2780, SRB, 48 h); 59 nM in test [12] (setting [17]).
